Assay results as given in patent publication US8426429B2, “2-amino-quinazoline derivatives useful as inhibitors of β-secretase (BACE)” (Jansssen Pharmaceutica N.V., priority 2004, dated 2013).
Several values for one entry are separate records, joined by “and”; a condition that tells them apart may be missing. Identical values can stand only once.

Tests used:
Type in all cases: biochemical
[1] = biological target: T1, β-secretase (BACE) (Homo sapiens, UniProt P56817); assay: BACE Assay-2 (FS1 substrate, IC50 and Ki); details: procedure of Example 159, FS1 substrate
T1 construct: purchased Panvera
Protocol: (§1) The FS1-substrate stock solution was prepared in DMSO as a 10 mg/mL solution. The FS1-substrate working solution was prepared by diluting the 10 mg/mL stock solution with substrate assay buffer to a final concentration of […]. The β-secretase (BACE) working solution was prepared by diluting a 0.83 mg/mL BACE stock solution with enzyme assay buffer to a final concentration of 4 μg/mL.
Test compounds were dissolved in DMSO at 10 mM.
(§2) The procedure for this assay was as follows: 15 μL of BACE working solution was pipetted into each well of a 96-well plate. To each well was then pipetted 2 μL of test compound at the selected concentration. Test compound and BACE were then mixed with a pipettor and incubated for 20 min at room temperature. To each well was then added 10 μL of the FS1 substrate working solution.
(§3) The procedure for the positive control was as follows:15 μL of BACE working solution was pipetted into each well to be used as a positive control. To each well was then pipetted 2 μL of vehicle. Vehicle and BACE were then mixed with a pipettor and incubated for 20 min at room temperature. To each well was then added 10 μL of the FS1 substrate working solution.
For test compounds, measured at multiple concentrations, the measured T0 and T60 values were used to calculate an IC50 value using Graphpad Software (or PIR). For test compounds, Ki inhibition was determined as follows: For each compound concentration and positive control, rate of cleavage of substrate (Vi, where i=compound concentration in μM) was determined as Δ Fluorescence/Δ time (min). Cleavage rates (Vi) were plotted as a function of inhibitor concentration in μM [I]. The Ki was then determined by fitting the following equation to the graph of [I] vs Vi Y=aVmax/(50+24*(1+X/Ki)),

[2] = biological target: T1, β-secretase (BACE); assay: BACE Assay-1 (MCA-substrate, IC50); details: procedure of Example 158
Protocol: The following standards are reagents were used in this assay: Sodium Citrate trisodium salt dihydrate (Sigma), Citric Acid monohydrate (Merck), PEG8000 (Sigma), MCA-substrate (Bachem), β-secretase (BACE) (Panvera), 96-well plate zwart (Costar (Elscolab)), StatVal (Bachem).
The following standard assay buffer solution was prepared and used in this assay: 0.05 M, pH 5.0 mixture of sodium citrate trisodium salt dihydrate (9.56 g), citric acid monohydrate (3.68 g) and PEG8000 (0.50 g).
The MCA-substrate stock solution was prepared by mixing 10 mg MCA-substrate with 5 mL DMSO for a final solution concentration of 2.0 mg/mL. The substrate work solution was prepared by mixing 0.1 mL substrate in 1.90 mL assay buffer for a final concentration of 0.05 mM. The β-secretase (BACE) work solution was prepared by mixing 8 μL BACE in 2 mL assay buffer for a final concentration of 10 µg/mL.
The screen procedure for this assay was as follows. 60 μL of assay buffer was pippeted into each well of a 96-well plate. To each well was then pipetted 1 μL of test compound at the selected concentration. To each well was then added 20 μL of the β-secretase work solution and […] of the MCA-substrate stock solution.
The procedure for the blank was as follows. 80 μL of assay buffer was pipetted into each well to be used as a blank control. To each well was then added 1 μL of DMSO and 20 μL of MCA-substrate solution in each well.
The procedure for the positive control was as follows. 60 μL of assay buffer was pipetted into each well to be used as a positive control. To each well was then added 1 μL of DMSO, 20 μL of BACE work solution and 20 μL of MCA-substrate stock solution.
For test compounds, measured at multiple concentrations, the measured T0 and T60 values were used to calculate an IC50 value using Graphpad Software (or PIR).

[3] = biological target: T1, β-secretase (BACE); assay: BACE % Inhibition Assay ((Aedens)-[…]-(Dabcyl K-amide) substrate); details: % error ±10%; for inhibition at 3 µM: 3 μM compound; for inhibition at 10 µM: 10 μM compound
Protocol: as §1, with “substrate” for “FS1-substrate”
Test compounds were dissolved in DMSO to 10 mM.
as §2, with “The screening” for “The”, “the” for “the FS1”, “solution. The plates were then incubated for 1 hour at room temperature.” for “solution.”
The procedure for the blank was as follows. 15 μL of assay buffer was pipetted into each well to be used as a blank control. To each well was then added 2 μL of vehicle and 10 μL of substrate working solution. The plates were then incubated for 1 hour at room temperature.
as §3, with “follows: 15 μl” for “follows:15 μL”, “the” for “the FS1”, “solution. The plates were the incubated for 1 hour at room temperature.” for “solution.”
For test compounds, % inhibition was determined at each concentration as follows: […]

[4] = biological target: T1, β-secretase (BACE); assay: BACE FS1 % Inhibition Assay; details: read-out: % Inhibition (FS); for inhibition at 0.3 µM: 0.3 μM test compound; for inhibition at 1 µM: 1 μM test compound; for inhibition at 3 µM: 3 μM test compound
How it was run: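 Percent inhibition per compound concentration was referenced to vehicle-treated enzyme and no-enzyme wells. Enzyme at a 4 μg/mL working stock plus compound was mixed for 20 min at room temperature before the FS1 substrate (300 μg/mL working stock) was added for a 1 h room-temperature reaction.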

T1 sequence (P56817 46-501): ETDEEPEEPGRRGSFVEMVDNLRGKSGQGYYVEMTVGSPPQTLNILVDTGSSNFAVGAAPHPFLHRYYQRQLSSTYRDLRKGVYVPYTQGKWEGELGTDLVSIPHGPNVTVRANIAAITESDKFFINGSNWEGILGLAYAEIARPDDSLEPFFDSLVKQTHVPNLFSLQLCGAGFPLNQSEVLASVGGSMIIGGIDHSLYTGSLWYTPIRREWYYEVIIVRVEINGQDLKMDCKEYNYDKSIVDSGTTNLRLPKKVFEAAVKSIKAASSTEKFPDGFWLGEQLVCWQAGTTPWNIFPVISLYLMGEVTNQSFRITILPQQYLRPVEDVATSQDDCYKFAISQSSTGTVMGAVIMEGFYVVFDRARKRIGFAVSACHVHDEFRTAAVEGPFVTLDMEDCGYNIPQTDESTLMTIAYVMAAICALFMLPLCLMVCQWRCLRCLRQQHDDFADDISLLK

Structure (SMILES) | Ki [1] | IC50 [2] [µM] | inhibition at 3 µM [3] [%] | inhibition at 10 µM [3] [%] | inhibition at 0.3 µM [4] [%] | inhibition at 1 µM [4] [%] | inhibition at 3 µM [4] [%] | IC50 [1] [µM]
CN(C(=O)CC(CC(=O)N(C)C1CCCCC1)N1Cc2cc(Oc3ccccc3)ccc2N=C1N)C1CCCCC1 [Compound 107, 3-(2-Amino-6-phenoxy-4H-quinazolin-3-yl)-pentanedioic acid bis-(cyclohexyl-methyl-amide)] | 1.2 µM | 0.82 | 48 | 78 |  |  |  | 4.58
CCCN1Cc2cc(Oc3cccc(NC(=O)C4CCCCC4)c3)ccc2N=C1N [Compound 44] | 3.3 µM | 6.1 | < 30 | 31 |  |  |  | 
CCCN1Cc2cc(Oc3cccc(N(C#N)CC4CCCCC4)c3)ccc2N=C1N [Compound 56] | 0.77 µM | 0.97 | 35 | 79 |  |  |  | 5.4

Further lines, with some results ahead:

Ki [1] | IC50 [2] [µM] | inhibition at 3 µM [3] [%] | inhibition at 10 µM [3] [%] | inhibition at 0.3 µM [4] [%] | inhibition at 1 µM [4] [%] | inhibition at 3 µM [4] [%] | Structure (SMILES) | IC50 [1] [µM]
0.13 µM | 0.048 | 72 | 80 |  |  |  | CCCC(CCC(=O)N(C)C1CCCCC1)N1Cc2cc(Oc3ccccc3)ccc2N=C1N (stereo not shown) [Compound 86] | 
0.03 µM | 0.016 |  |  | 79 | 106 | 116 | NC1=Nc2ccc(Oc3ccccc3)cc2CN1C(CNC(=O)C1CCCC1)C1CCCCC1 (stereo not shown) [Compound 295] | 
0.018 µM and 0.0075 µM | 0.03 |  |  | 106 | 115 | 128 | COc1ccccc1-c1ccc2c(c1)CN([C@@H](CCC(=O)N(C)C1CCCCC1)C1CCCCC1)C(N)=N2 [Compound 506] | 
